From patent US9266871B2, “Trifluoromethyl-substituted fused pyrimidines and their use” (BAYER PHARMA AKTIENGESELLSCHAFT, priority 2013, dated 2016)

Assay: Pharmacokinetic parameters following intravenous and oral administration
Format: in vivo, rat
Conditions: rats, i.v. 0.3 mg/kg and oral 1 mg/kg
From the text: • Klaus Witte, Kai Hu, Johanna Swiatek, Claudia Müssig, Georg Ertl and Björn Lemmer: Experimental heart failure in rats: effects on cardiovascular circadian rhythms and on myocardial β-adrenergic signaling. Cardiovasc Res 47 (2): […], 2000; Kozo Okamoto: Spontaneous hypertension in rats. Int Rev Exp Pathol 7: 227-270, 1969; Maarten van den Buuse: Circadian Rhythms of Blood Pressure, Heart Rate, and Locomotor Activity in Spontaneously Hypertensive Rats as Measured With Radio-Telemetry. Physiology & Behavior 55(4): 783-787, 1994 B-4. Determination of Pharmacokinetic Parameters Following Intravenous and Oral Administration
The pharmacokinetic parameters of the compounds of the formula (I) according to the invention are determined in male CD-1 mice, male Wistar rats and female beagles. Intravenous administration in the case of mice and rats is effected by means of a species-specific plasma/DMSO formulation, and in the case of dogs by means of a water/PEG400/ethanol formulation. In all species, oral administration of the dissolved substance is performed via gavage, based on a water/PEG400/ethanol formulation. The removal of blood from rats is simplified by inserting a silicone catheter into the right Vena jugularis externa prior to substance administration. The operation is effected at least one day prior to the experiment with isofluran anaesthesia and administration of an analgesic ([…]/rimadyl (3/1) 0.1 ml s.c.). The blood is taken (generally more than 10 time points) within a time window including terminal time points of at least 24 to a maximum of 72 hours after substance administration. The blood is removed into heparinized tubes. The blood plasma is then obtained by centrifugation; if required, it can be stored at −20° C. until further processing.
An internal standard (which may also be a chemically unrelated substance) is added to the samples of the compounds of the formula (I) according to the invention, calibration samples and qualifiers, and this is followed by protein precipitation using excess acetonitrile. Addition of a buffer solution matched to the LC conditions, and subsequent vortexing, is followed by centrifugation at 1000 g. The supernatant is analysed by means of LC-MS/MS using C18 reversed-phase columns and variable mobile phase mixtures. The substances are quantified via the peak heights or areas from extracted ion chromatograms of specific selected ion monitoring experiments.
The plasma concentration/time plots determined are used to calculate the pharmacokinetic parameters such as AUC (area under the curve), Cmax, t1/2 (terminal half life), F (bioavailability), MRT (mean residence time) and CL (clearance), using a validated pharmacokinetic calculation programme.
Since the substance quantification is performed in plasma, it is necessary to determine the blood/plasma distribution of the substance in order to be able to adjust the pharmacokinetic parameters correspondingly. For this purpose, a defined amount of substance is incubated in heparinized whole blood of the species in question in a rocking roller mixer for 20 min. After centrifugation at 1000 g, the plasma concentration is measured (by means of LC-MS/MS; see above) and determined by calculating the ratio of the Cblood/Cplasma value.

MRT (male, Wistar, rat, plasma): 6.6 h
half-life (male, Wistar, rat, plasma): 5.9 h
AUCnorm: 1.77 kg·h/L
CLblood: 11.7 mL/min/kg
F: 98.8%
Compound: C[C@@]1(C(F)(F)F)C(=O)Nc2nc(-c3nn(Cc4ncccc4F)c4ncc(F)cc34)nc(NCCC(F)(F)F)c21 (single isomer, unassigned) [Example 1-1]
